The target in the assay is T1, human Edg-1 receptor (Homo sapiens, UniProt P21453).
T1 construct: FLAG (N); expressed in transfected cells; membrane preparation
Briefly: GTP-γ-S assay using human Edg-1 receptors (SPA, CHO Flp-In cell membrane preparation). Type of assay: biochemical. The note with it: test compound at 10 μM, high control 10 μM S1P regarded as 100% activation, background-corrected, triplicate; for activation at 10 µM: read-out: % Activation (Edg-1 receptor activation in percent of the activation by 10 μM S1P). In outline:
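Membranes from CHO Flp-In cells stably overexpressing N-terminally FLAG-tagged human Edg-1 were used in a scintillation-proximity GTP-γ-S binding assay to measure receptor activation by compounds.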

T1 sequence (P21453 whole entry): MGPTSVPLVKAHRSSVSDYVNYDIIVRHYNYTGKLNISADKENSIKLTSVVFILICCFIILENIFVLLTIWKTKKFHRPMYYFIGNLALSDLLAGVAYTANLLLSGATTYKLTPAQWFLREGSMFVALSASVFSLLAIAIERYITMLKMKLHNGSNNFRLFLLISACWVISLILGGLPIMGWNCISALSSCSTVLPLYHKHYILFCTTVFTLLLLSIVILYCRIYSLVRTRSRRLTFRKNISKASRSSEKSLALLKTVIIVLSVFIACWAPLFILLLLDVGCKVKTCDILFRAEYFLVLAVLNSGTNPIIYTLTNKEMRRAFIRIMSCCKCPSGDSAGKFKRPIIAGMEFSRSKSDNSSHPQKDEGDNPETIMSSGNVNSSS

For `CCCOc1nc(Sc2cc(C)oc2C)nc2oc(-c3cc(F)ccc3Cl)nc12` [Example 151, 2-(2-chloro-5-fluoro-phenyl)-5-(2,5-dimethyl-furan-3-ylsulfanyl)-7-propoxy-oxazolo[5,4-d]pyrimidine], the activation at 10 µM was determined as 66%.
Take `CCCOc1nc(Oc2ccc(C)nn2)nc2oc(-c3cccc(C)c3)nc12` [Example 19, 5-(6-methyl-pyridazin-3-yloxy)-7-propoxy-2-(3-methyl-phenyl)-oxazolo[5,4-d]pyrimidine]: the activation at 10 µM was found to be 62%.
Turning to `CCCOc1nc(Oc2ccc(C)cc2)nc2oc(-c3cccc(C)c3)nc12` [Example 73, 7-propoxy-2-(3-methyl-phenyl)-5-p-tolyloxy-oxazolo[5,4-d]pyrimidine], the activation at 10 µM stood at 80%.
`CCCOc1nc(Oc2ccccc2SC)nc2oc(-c3cccc(C)c3)nc12` [Example 139, 5-(2-methylsulfanyl-phenoxy)-7-propoxy-2-(3-methyl-phenyl)-oxazolo[5,4-d]pyrimidine]: the activation at 10 µM was 120%.
Turning to `CCOc1nc(Oc2cc(C)nn2C)nc2oc(-c3cc(F)ccc3Cl)nc12` [Example 10, 2-(2-chloro-5-fluoro-phenyl)-5-(2,5-dimethyl-2H-pyrazol-3-yloxy)-7-ethoxy-oxazolo[5,4-d]pyrimidine], the activation at 10 µM is 107%.
`Cc1cccc(-c2nc3c(OCC4CC4)nc(OCC4COC(C)(C)O4)nc3o2)c1` (stereo not shown) [Example 36, 7-cyclopropylmethoxy-5-(2,2-dimethyl-[1,3]dioxolan-4-ylmethoxy)-2-(3-methyl-phenyl)-oxazolo[5,4-d]pyrimidine]: the activation at 10 µM was 78%.
For `CCCOc1nc(Oc2ccc(C)cc2F)nc2oc(-c3cccc(C)c3)nc12` [Example 111, 5-(2-fluoro-4-methyl-phenoxy)-7-propoxy-2-(3-methyl-phenyl)-oxazolo[5,4-d]pyrimidine], the activation at 10 µM is 88%.
With `Cc1cc(Oc2nc(OCC3CC3)c3nc(-c4cccc(F)c4)oc3n2)n(C)n1` [Example 102, 7-cyclopropylmethoxy-5-(2,5-dimethyl-2H-pyrazol-3-yloxy)-2-(3-fluoro-phenyl)-oxazolo[5,4-d]pyrimidine], the activation at 10 µM came to 130%.
`CCCOc1nc(Oc2cc(Cl)ccc2Cl)nc2oc(-c3cccc(C)c3)nc12` [Example 120, 5-(2,5-dichloro-phenoxy)-7-propoxy-2-(3-methyl-phenyl)-oxazolo[5,4-d]pyrimidine]: the activation at 10 µM came out at 86%.
`CCCOc1nc(Oc2cccc(C#N)c2)nc2oc(-c3cccc(C)c3)nc12` [Example 87, 3-(7-propoxy-2-(3-methyl-phenyL)-oxazolo[5,4-d]pyrimidin-5-yloxy)-benzonitrile]: the activation at 10 µM came to 93%.
In the case of `CCCOc1nc(Sc2nc(C)cs2)nc2oc(-c3cccc(C)c3)nc12` [Example 55, 5-(4-methyl-thiazol-2-ylsulfanyl)-7-propoxy-2-(3-methyl-phenyl)-oxazolo[5,4-d]pyrimidine], the activation at 10 µM came to 81%.
As to `CCCOc1nc(Oc2ccccc2F)nc2oc(-c3cccc(C)c3)nc12` [Example 103, 5-(2-fluoro-phenoxy)-7-propoxy-2-(3-methyl-phenyl)-oxazolo[5,4-d]pyrimidine], the activation at 10 µM came to 109%.
On to `CCCOc1nc(Oc2ccc(=O)n(C)n2)nc2oc(-c3cc(F)ccc3Cl)nc12` [Example 114, 6-[2-(2-chloro-5-fluoro-phenyl)-7-propoxy-oxazolo[5,4-d]pyrimidin-5-yloxy]-2-methyl-2H-oyridazin-3-one], for which the “% Activation (Edg-1 receptor activation in percent of the activation by 10 μM S1P)” value came out at 96%.
On to `CCCOc1nc(Oc2cc(F)ccc2Cl)nc2oc(-c3cccc(C)c3)nc12` [Example 101, 5-(2-chloro-5-fluoro-phenoxy)-7-propoxy-2-(3-methyl-phenyl)-oxazolo[5,4-d]pyrimidine], for which the activation at 10 µM was 104%.
In the case of `Cc1cccc(-c2nc3c(OCC4CC4)nc(Oc4ccccc4F)nc3o2)c1` [Example 29, 7-cyclopropylmethoxy-5-(2-fluoro-phenoxy)-2-(3-methyl-phenyl)-oxazolo[5,4-d]pyrimidine], the activation at 10 µM worked out at 109%.
As to `CCCOc1nc(Oc2ccccc2)nc2oc(-c3cccc(C)c3)nc12` [Example 51, 5-phenoxy-7-propoxy-2-(3-methyl-phenyl)-oxazolo[5,4-d]pyrimidine], the activation at 10 µM stood at 110%.
For the molecule `CCCOc1nc(Oc2ccccc2)nc2oc(-c3cc(F)ccc3Cl)nc12` [Example 78, 2-(2-chloro-5-fluoro-phenyl)-5-phenoxy-7-propoxy-oxazolo[5,4-d]pyrimidine], the activation at 10 µM worked out at 70%.
Take `CCCOc1nc(Oc2cccc(C(C)(C)C)c2)nc2oc(-c3cccc(C)c3)nc12` [Example 125, 5-(3-tert-butyl-phenoxy)-7-propoxy-2-(3-methyl-phenyl)-oxazolo[5,4-d]pyrimidine]: the activation at 10 µM was determined as 61%.
On the same count and under the same terms, as for `CCCOc1nc(OC2CCCCC2)nc2oc(-c3cccc(F)c3)nc12` [Example 62, 5-cyclohexyloxy-2-(3-fluoro-phenyl)-7-propoxy-oxazolo[5,4-d]pyrimidine], the figure is 111%; as for `CCCOc1nc(Oc2ccc(Cl)cc2OC)nc2oc(-c3cc(F)ccc3Cl)nc12` [Example 63, 2-(2-chloro-5-fluoro-phenyl)-5-(4-chloro-2-methoxy-phenoxy)-7-propoxy-oxazolo[5,4-d]pyrimidine], 80%; as for `CCCOc1nc(Oc2ccc(F)cc2F)nc2oc(-c3cccc(C)c3)nc12` [Example 95, 5-(2,4-difluoro-phenoxy)-7-propoxy-2-(3-methyl-phenyl)-oxazolo[5,4-d]pyrimidine], 107%.
For `CCOc1nc(Oc2ccccc2F)nc2oc(-c3cc(C)c(O)c(C)c3)nc12` [Example 47, 4-[7-ethoxy-5-(2-fluoro-phenoxy)-oxazolo[5,4-d]pyrimidin-2-yl]-2,6-dimethyl-phenol], the activation at 10 µM was 119%.
Regarding `CCCOc1nc(Oc2c(C)cc(C)cc2C)nc2oc(-c3cccc(C)c3)nc12` [Example 142, 7-propoxy-2-(3-methyl-phenyl)-5-(2,4,6-trimethyl-phenoxy)-oxazolo[5,4-d]pyrimidine], the activation at 10 µM came to 50%.
In the case of `CCCOc1nc(Oc2cc(F)cc(Cl)c2)nc2oc(-c3cccc(C)c3)nc12` [Example 138, 5-(3-chloro-5-fluoro-phenoxy)-7-propoxy-2-(3-methyl-phenyl)-oxazolo[5,4-d]pyrimidine], the activation at 10 µM worked out at 97%.
For “5-(2-fluoro-phenoxy)-2-(1-oxy-pyridin-3-yl)-7-propoxy-oxazolo[5,4-d]pyrimidine [Example 109]”, the “% Activation (Edg-1 receptor activation in percent of the activation by 10 μM S1P)” value turned out to be 108%.
In the case of `CCCOc1nc(Oc2ccc(Cl)c(Cl)c2)nc2oc(-c3cccc(C)c3)nc12` [Example 1, 5-(3,4-Dichloro-phenoxy)-7-propoxy-2-(3-methyl-phenyl)-oxazolo[5,4-d]pyrimidine], the activation at 10 µM was 62%.
As to `CC1(C)OCC(COc2nc(OCC3CC3)c3nc(-c4cccc(F)c4)oc3n2)O1` (stereo not shown) [Example 35], the “% Activation (Edg-1 receptor activation in percent of the activation by 10 μM S1P)” value came out at 72%.
Regarding `CCCOc1nc(Oc2c(Cl)cccc2Cl)nc2oc(-c3cccc(C)c3)nc12` [Example 86, 5-(2,6-dichloro-phenoxy)-7-propoxy-2-(3-methyl-phenyl)-oxazolo[5,4-d]pyrimidine], the activation at 10 µM was found to be 98%.
Turning to `CCCOc1nc(OC2COC2)nc2oc(-c3cccc(C)c3)nc12` [Example 38, 5-(oxetan-3-yloxy)-7-propoxy-2-(3-methyl-phenyl)-oxazolo[5,4-d]pyrimidine], the activation at 10 µM came to 70%.
On to `CCCOc1nc(OC2CCC(C)CC2)nc2oc(-c3cccc(C)c3)nc12` (stereo not shown) [Example 70, 5-(4-methyl-cyclohexyloxy)-7-propoxy-2-(3-methyl-phenyl)-oxazolo[5,4-d]pyrimidine], for which the activation at 10 µM was determined as 77%.
For the molecule `CCCOc1ccccc1Oc1nc(OCCC)c2nc(-c3cccc(C)c3)oc2n1` [Example 146, 7-propoxy-5-(2-propoxy-phenoxy)-2-(3-methyl-phenyl)-oxazolo[5,4-d]pyrimidine], the activation at 10 µM turned out to be 126%.
As to `CCCOc1nc(Oc2ccc(SC(F)(F)F)cc2)nc2oc(-c3cccc(F)c3)nc12` [Example 82, 2-(3-fluoro-phenyl)-7-propoxy-5-(4-trifluoromethylsulfanyl-phenoxy)-oxazolo[5,4-d]pyrimidine], the activation at 10 µM stood at 107%.
Same read-out and setting: the figure for `CCCOc1nc(Oc2cc(Cl)ccc2C)nc2oc(-c3cc(F)ccc3Cl)nc12` [Example 66, 2-(2-chloro-5-fluoro-phenyl)-5-(5-chloro-2-methyl-phenoxy)-7-propoxy-oxazolo[5,4-d]pyrimidine] is 106%.
On to `CCCOc1nc(Oc2ccccc2)nc2oc(-c3ccc(Cl)c(Cl)c3)nc12` [Example 105, 2-(3,4-dichloro-phenyl)-5-phenoxy-7-propoxy-oxazolo[5,4-d]pyrimidine], for which the activation at 10 µM stood at 88%.
For the molecule `CCCOc1nc(N[C@H]2CCC[C@H](C)C2)nc2oc(-c3cc(F)ccc3Cl)nc12` [Example 147, [2-(2-chloro-5-fluoro-phenyl)-7-propoxy-oxazolo[5,4-d]pyrimidin-5-yl]-((1S,3S)-3-methyl-cyclohexyl)-amine], the activation at 10 µM worked out at 63%.
Take `CCCOc1nc(Oc2cc(F)ccc2C)nc2oc(-c3cccc(C)c3)nc12` [Example 50, 5-(5-fluoro-2-methyl-phenoxy)-7-propoxy-2-(3-methyl-phenyl)-oxazolo[5,4-d]pyrimidine]: the activation at 10 µM stood at 107%.
Same read-out and setting: the figure for `CCCOc1nc(Oc2cccnc2)nc2oc(-c3cccc(O)c3)nc12` [Example 43, 3-[7-propoxy-5-(pyridin-3-yloxy)-oxazolo[5,4-d]pyrimidin-2-yl]-phenol] is 98%.
